What all share (assay type): cell-based, human
One test concerns islet-like clusters. Nature of the test: CDK inhibitor III treatment of islet-like clusters in suspension (Stage 7): PCR and dithizone staining (Example 4). Conditions: 1 μm. How it is done: The medium was changed daily.
After stage 6, the cells were treated for 5 mins at room temperature with 1× accutase (Sigma, Mo.). The accutase was removed, and DMEM/12+1% B27 was added to the cells. The attached cells were removed using a cell scarper and gently resuspended and passed through a 40 μm cell strainer. The cells retained on the strainer were removed by rinsing in basal media and cultured in suspension on Ultra-Low culture plates (Catalogue#3471, Corning, Ma). […] Cells treated with vehicle were included as controls. Samples were collected at days 7 through 10 for PCR analysis and dithizone staining. The cells cultured in suspension according to the methods outlined in this example assumed a morphology similar to pancreatic islet clusters.

The subject of test [1] is insulin-producing cells. Nature of the test: FACS analysis of insulin producing cells (Example 5). The following applies: 1 μM for 5 days. How it is done:
DMEM/F12+1% B27 for seven days (Stage 6), then • g. Treatment with Accutase for 5 minutes, followed by scraping to remove any remaining attached cells. The cell suspension was then passed through a 40 μm cell strainer. The cells retained on the strainer were removed by rinsing in basal media and cultured in suspension on Ultra-Low culture plates in DMEM-High Glucose (Catalogue#11995-073, Invitrogen, Ca)+1% B27+20 ng/ml of activin A (AA) 1 μm of CDK inhibitor III (Catalog#217714, Calbiochem, Ca) for 5 days (Stage 7).
Islet-like clusters were dispersed into single cells using TrypLE Express (Invitrogen, Carlsbad, Calif.) and washed in cold PBS. For fixation, the cells were resuspended in 200-300 μl Cytofix/Cytoperm Buffer (BD 554722, BD, Ca) and incubated for 30 min at 4° C. Cells were washed two times in 1 ml Perm/Wash Buffer Solution (BD 554723) and resuspended in 100 μl staining/blocking solution containing 2% normal goat serum in Perm/Wash buffer. For flow cytometric analysis, cells were stained with the following primary antibodies: Anti-Insulin (Rabbit mAb, Cell Signaling No. C279; 1:100 dilution); Anti-Glucagon (Mouse Mab, Sigma No. G2654, 1:100); Anti-Synaptophysin (Rabbit Polyclonal antibody, DakoCytomation No A0010, 1:50). […] Cells were washed at least once in Perm/Wash buffer and analyzed using BD FACSArray. […]

In test [2] the test system is insulin-producing cells. Nature of the test: Kinetics of CDK inhibitor-induced MAFA expression, PCR (Example 6). How it is done: DMEM/F12+1% B27 for seven days (Stage 6), then • g. Treatment with Accutase for 5 minutes, followed by scraping to remove any remaining attached cells. The cell suspension was then passed through a 40 μm cell strainer. The cells retained on the strainer were removed by rinsing in basal media and cultured in suspension on Ultra-Low culture plates in DMEM-High Glucose (Catalogue#11995-073, Invitrogen, Ca)+1% B27+20 ng/ml of activin A (AA) 2 μm of CDK inhibitor III (Catalog#217714, Calbiochem, Ca) for 1-8 days (Stage 7).
Samples were collected for PCR analysis at days 1, 2, 3, and 4.

The mark [3] stands for this setting: Stage 7, days 7 through 10, PCR.
Setting [4] is: 2 μm, days 1-4 of stage 7, increased as a function of time.
Setting [5] is: four days after removal of the compound.

The structures appear in SMILES notation.

Turning to `Nc1nc(Nc2ccc(S(N)(=O)=O)cc2)nn1C(=S)Nc1c(F)cccc1F` [PubChem ID#5330812, 5-Amino-3-((4-(aminosulfonyl)phenyl)amino)-N-(2,6-difluorophenyl)-1H-1,2,4-triazole-1-carbothioamide], in the test with islet-like clusters (setting [3]), the “expression of markers associated with the pancreatic endocrine lineage” value is reported as “increased the expression” and the “expression of the pro-insulin transcription factor MAFA” value is “increased the expression”. Moreover, the “dithazone (DTZ) staining of clusters” value in the test on islet-like clusters (Stage 7, versus untreated clusters) is on record as “more reddish staining pattern”. In the test with insulin-producing cells [1] (Stage 7, versus vehicle), the “percentage of poly hormonal (insulin and glucagon positive) cells” value is “decreased”. The “single hormonal insulin positive cells” value with insulin-producing cells [1] (Stage 7, vehicle 3%) is 8%. Also, in the test with insulin-producing cells [2] (setting [4]), the MAFA expression entry was “significant increase” and the insulin expression entry is listed as “significant increase”. In addition, in the test on insulin-producing cells [2] (setting [5]), the “MAFA expression after removal of CDK inhibitor” value is recorded as “significant drop” and the “insulin expression after removal of CDK inhibitor” value is reported as “significant drop”.

The record behind these values is patent US9234178B2, “Differentiation of human pluripotent stem cells” (Janssen Biotech, Inc., priority 2008, dated 2016).
